Measurements as given in patent US20230310388A1, “Methods and Compositions for Treating Fungal Infections” (Neoculi Pty Ltd, priority 2020, published 2023).

Test system: Candida albicans ATCC14053
Assay: Broth micro-dilution screen at 16 μg/mL and MIC (Example 9)
Assay type: cell-based
Conditions: single concentration 16 μg/mL; Growth or No growth of C. albicans ATCC14053
Procedure: The antifungal activity of 201 NCL analogs against Candida albicans ATCC14053 in vitro was investigated. A broth micro-dilution method was used, according to CLSI guidelines as described. NCL analogs were dissolved in DMSO and originally screened at a single concentration of 16 μg/mL.

Compound | Screen at 16 μg/mL
Cc1cccc(C=NNC(=N)N)c1.Cl [NCL046] | Growth
Cl.N=C(N)NN=Cc1cccc(Cl)c1 [NCL052] | Growth
Cl.N=C(N)NN=Cc1ccc(F)cc1 [NCL053] | Growth
CC(=NNC(=N)NN=C(C)c1ccc(C(F)(F)F)cc1)c1ccc(C(F)(F)F)cc1.Cl [NCL061] | Growth
Cl.N=C(NN=Cc1ccc2ccccc2c1)NN=Cc1ccc2ccccc2c1 [NCL093] | Growth
Cl.N=C(NN=Cc1ccoc1)NN=Cc1ccoc1 [NCL095] | Growth
Cl.N=C(NN=CC=Cc1ccccc1)NN=CC=Cc1ccccc1 [NCL096] | Growth
Cl.N=C(NN=Cc1cccc(C(=O)O)c1)NN=Cc1cccc(C(=O)O)c1 [NCL098] | Growth
CC(C)(C)c1ccc(/C=N/NC(=N)N/N=C/c2ccc(C(C)(C)C)cc2)cc1.Cl [NCL099] | Growth
Cl.N=C(NN=Cc1ccccc1)NN=Cc1ccccc1 [NCL100] | Growth
Cl.N=C(NN=Cc1cccc(O)c1O)NN=Cc1cccc(O)c1O [NCL101] | No growth
Cl.N=C(NN=Cc1ccccc1[N+](=O)[O-])NN=Cc1ccccc1[N+](=O)[O-] [NCL102] | Growth
Cl.N=C(NN=Cc1cc(O)c(O)cc1O)NN=Cc1cc(O)c(O)cc1O [NCL104] | Growth
COc1cc(C=NNC(=N)NN=Cc2cc(O)c(O)c(OC)c2)cc(O)c1O.Cl [NCL106] | Growth
Cl.N=C(NN=Cc1cccc(O)c1)NN=Cc1cccc(O)c1 [NCL108] | Growth
Cl.N=C(NN=Cc1cccc([N+](=O)[O-])c1)NN=Cc1cccc([N+](=O)[O-])c1 [NCL109] | Growth
N=C(N/N=C/c1ccc(-c2ccccc2)cc1)N/N=C/c1ccc(-c2ccccc2)cc1 [NCL112] | Growth
Cl.N=C(NN=Cc1ccccc1-c1ccccc1)NN=Cc1ccccc1-c1ccccc1 [NCL116] | Growth
COc1cc(C=NNC(=N)NN=Cc2ccc(O)c(OC)c2)ccc1O.Cl [NCL117] | Growth
Cl.N=C(NN=Cc1cc(F)ccc1F)NN=Cc1cc(F)ccc1F [NCL118] | Growth
CC(=O)Nc1ccc(C=NNC(=N)NN=Cc2ccc(NC(C)=O)cc2)cc1.Cl [NCL119] | Growth
CC(C)c1ccc(C=NNC(=N)NN=Cc2ccc(C(C)C)cc2)cc1.Cl [NCL120] | Growth

Compound | Screen at 16 μg/mL
Cl.N=C(NN=Cc1ccc(O)c([N+](=O)[O-])c1)NN=Cc1ccc(O)c([N+](=O)[O-])c1 [NCL122] | Growth
Cl.N=C(NN=Cc1c(O)ccc2ccccc12)NN=Cc1c(O)ccc2ccccc12 [NCL124] | Growth
COc1ccc(C=NNC(=N)NN=Cc2ccc(OC)c(O)c2)cc1O.Cl [NCL125] | Growth
Cl.N=C(NN=Cc1ccc(Cl)cc1Cl)NN=Cc1ccc(Cl)cc1Cl [NCL127] | Growth
Cl.N=C(NN=Cc1ccccc1Br)NN=Cc1ccccc1Br [NCL129] | Growth
COc1cc(C=NNC(=N)NN=Cc2cc(Br)c(OC)c(OC)c2)cc(Br)c1OC.Cl [NCL130] | Growth
Cl.N=C(NN=Cc1cccc(Br)c1)NN=Cc1cccc(Br)c1 [NCL131] | Growth
Cl.N=C(NN=CC1=C(Cl)c2cc(F)ccc2OC1)NN=CC1=C(Cl)c2cc(F)ccc2OC1 [NCL132] | Growth
Cl.N=C(NN=Cc1cc(Br)co1)NN=Cc1cc(Br)co1 [NCL133] | Growth
CCCCc1ccc(C=NNC(=N)NN=Cc2ccc(CCCC)cc2)cc1.Cl [NCL136] | Growth
Cl.N=C(NN=Cc1c(Cl)cccc1Cl)NN=Cc1c(Cl)cccc1Cl [NCL137] | Growth
Cl.N=C(NN=CC(=Cc1ccccc1)c1ccccc1)NN=CC(=Cc1ccccc1)c1ccccc1 [NCL138] | Growth
CC(=NNC(=N)NN=C(C)c1ccccc1)c1ccccc1.Cl [NCL143] | Growth
Cl.N=C(NN=Cc1ccc(Br)o1)NN=Cc1ccc(Br)o1 [NCL144] | Growth
Cl.N=C(NN=Cc1ccc(Cl)o1)NN=Cc1ccc(Cl)o1 [NCL145] | Growth
Cl.N=C(NN=Cc1cnc2ccccc2n1)NN=Cc1cnc2ccccc2n1 [NCL147] | Growth
Cl.N=C(NN=Cc1ccc(C=CC(=O)O)cc1)NN=Cc1ccc(C=CC(=O)O)cc1 [NCL148] | Growth
Cl.N=C(NN=Cc1ccncc1)NN=Cc1ccncc1 [NCL149] | Growth
Cl.N=C(NN=Cc1ccc(O)cc1)NN=Cc1ccc(O)cc1 [NCL151] | Growth
Cc1cccc(C=NNC(=N)NN=Cc2cccc(C)c2O)c1O.Cl [NCL152] | Growth
CCC(=NNC(=N)NN=C(CC)c1ccc(Cl)cc1)c1ccc(Cl)cc1.Cl [NCL153] | Growth
